In general, pIC50 refers to −log10 of the IC50, conventionally taken in molar units.

The results in this text go back to patent US20210009542A1 (Calico Life Sciences LLC, priority 2018, published 2021).

Experiment [1] deals with T1, His tagged PTPN2 (TC45) protein (Homo sapiens, UniProt P17706).
T1 construct: made in house
T1 sequence (P17706 with tags, fused parts or gaps isoform P17706-2): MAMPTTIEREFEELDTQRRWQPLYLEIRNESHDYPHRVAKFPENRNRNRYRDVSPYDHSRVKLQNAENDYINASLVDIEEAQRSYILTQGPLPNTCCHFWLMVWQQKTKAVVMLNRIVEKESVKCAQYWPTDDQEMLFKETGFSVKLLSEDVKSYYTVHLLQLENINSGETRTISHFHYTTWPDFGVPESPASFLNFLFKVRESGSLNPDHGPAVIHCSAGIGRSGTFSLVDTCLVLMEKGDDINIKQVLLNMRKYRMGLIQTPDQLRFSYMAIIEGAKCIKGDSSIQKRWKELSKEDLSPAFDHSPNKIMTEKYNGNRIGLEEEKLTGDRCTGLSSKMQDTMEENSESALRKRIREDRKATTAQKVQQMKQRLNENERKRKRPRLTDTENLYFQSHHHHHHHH
Kind of experiment: Mobility shift assay (MSA) for potency of PTPN2 inhibitors. In kind it is biochemical. Particulars: read-out: PTPN2 MSA IC50. Here is the method:
Compound activity was determined using in house His tagged PTPN2 (TC45) protein (SEQ ID NO: 1) in an in vitro enzymatic reaction. The enzymatic assay used to determine activity was a mobility shift assay using a LabChip EZ Reader by Caliper Life Sciences. The enzymatic reaction was carried out in assay buffer (50 mM HEPES pH 7.5, 1 mM EGTA, 10 mM EDTA, 0.01% Tween® 20, and 2 mM DTT). The compounds were dispensed on a white 384 well ProxiPlate™ (PerkinElmer Catalog #6008289) plate using the Labcyte Echo at varying concentrations (12 point, 1:3 dilution). The enzyme (at 0.5 nM) was incubated with compound for 10 minutes at room temperature. Then the substrate (phosphorylated insulin receptor probe sequence: ((OG488)-(NH—CH2—CH2—O—CH2—CH2—O—CH2—CO)-T-R-D-I-(PY)-E-T-D-Y-Y-R-K-K-NH2) (SEQ ID NO: 2) was added at […] to the plates and incubated for another 10 minutes at room temperature. Finally, a quench solution (water and 4-bromo-3-(2-oxo-2-propoxyethoxy)-5-(3-{[1-(phenylmethanesulfonyl)piperidin-4-yl]amino}phenyl)thiophene-2-carboxylic acid) was added to the plates, which were then run on the EZ Reader (excitation 488 nm, emission 530 nm) to measure % conversion (the amount of phosphorylated substrate which was de-phosphorylated by PTPN2). […] The % inhibition was then used to calculate the IC50 values.

Experiment [2] relates to B16F10 mouse melanoma cells. As to the kind of experiment: B16F10 IFNγ-induced cellular growth inhibition assay. The class given is cell-based. Particulars: Mus musculus, B16-F10, 33 μM compound. Here is the method:
B16F10 mouse melanoma cells (ATCC Cat ^#CRL-6475, Manassas, Va.) were seeded at a density of 500 cells per well in a 384-well clear bottom plate (Corning Cat^# 3765, Corning, N.Y.) in 25 μL total volume of DMEM+10% FBS (Sigma Cat ^#D6429 and Sigma Cat ^#F4135, St. Louis, Mo.). Cells were allowed to adhere overnight at 37° C.+5% CO2. On the following day, 12.5 μL of mouse IFNγ (RD systems Cat485-MI/CF, Minneapolis, Minn.) was added to half of the plate (columns 13-24) at a concentration of 2 ng/mL for a final assay concentration of 0.5 ng/mL of IFNγ. Media only (12.5 μL of DMEM+10% FBS) was added to the remainder of the plate (columns 1-12). Next, compounds resuspended in DMSO (Sigma Cat ^#D2650) at 100 mM were diluted in semi-log dilutions in DMSO ranging from 100 mM to 0.001 mM and DMSO only controls were included. The compound/DMSO dilutions were further diluted 1:250 in DMEM+10% FBS, and 12.5 μL of these dilutions were added in triplicates to cells of both treatment arms (with and without IFNγ). Final compound concentrations ranged from 100 μM to 0.001 μM with a final DMSO concentration of 0.1%. Compounds were only dosed in the inner 240 wells, avoiding the outer 2-well perimeter of the plate to minimize edge effects. Finally, the plate was loaded into an IncuCyte® S3 Live Cell Analysis System (Essen Bioscience-Sartorius, Ann Arbor, Mich.) maintained in a 37° C.+5% CO2 incubator, allowed to equilibrate for 2 hours, and imaged every 6 hours for 5 days. Confluence over time for compound dilutions in the presence and absence of IFNγ was measured. Growth inhibition values were obtained when the “DMSO/no IFNγ” control reached confluence >95%. At these time points, the percent growth inhibition of each compound at the indicated concentration was calculated relative to the “DMSO/with IFNγ” control.

The mark [3] stands for this setting: +0.5 ng/mL IFNγ, relative to DMSO control, read-out: % B16F10 growth inhibition (+0.5 ng/mL IFNγ) @ 33 μM.
The mark [4] stands for this setting: no IFNγ, read-out: % B16F10 growth inhibition (no IFNγ) @ 33 μM.

pIC50: −log10 of the molar value. Like-named read-outs stand apart in the source and are kept apart here.

As to `CCS(=O)(=O)NCCOc1ccc2cc(O)c(N3CC(=O)NS3(=O)=O)c(F)c2c1` [Compound 311, N-(2-{[8-fluoro-6-hydroxy-7-(1,1,4-trioxo-1λ^6,2,5-thiadiazolidin-2-yl)naphthalen-2-yl]oxy}ethyl)ethanesulfonamide], in experiment [1], the pIC50 is above 9.00. Further, the inhibition at 33 µM in experiment [2] (setting [3]) is 60 to 90%; in experiment [2] (setting [4]), below 25%.
The like results for `CP(C)(=O)N1CC=C(c2ccc3cc(O)c(N4CC(=O)NS4(=O)=O)c(F)c3c2)C1` [Compound 168, 5-{7-[1-(dimethylphosphoryl)-2,5-dihydro-1H-pyrrol-3-yl]-1-fluoro-3-hydroxynaphthalen-2-yl}-1λ^6,2,5-thiadiazolidine-1,1,3-trione] were, in that order, above 9.00, above 90% and below 25%.
As to `N#CC1(CCOc2ccc3cc(O)c(N4CC(=O)NS4(=O)=O)c(F)c3c2)CC1` [Compound 159, 1-(2-{[8-fluoro-6-hydroxy-7-(1,1,4-trioxo-1λ^6,2,5-thiadiazolidin-2-yl)naphthalen-2-yl]oxy}ethyl)cyclopropane-1-carbonitrile], in experiment [1], the pIC50 is above 9.00. Also, the figures for the inhibition at 33 µM in experiment [2] (setting [3]) and in experiment [2] (setting [4]) were above 90% and below 25%, respectively.
The like results for `Nc1ccccc1CS(=O)(=O)N1CC=C(c2ccc3cc(O)c(N4CC(=O)NS4(=O)=O)c(F)c3c2)C1` [Compound 195, 5-(7-{1-[(2-aminophenyl)methanesulfonyl]-2,5-dihydro-1H-pyrrol-3-yl}-1-fluoro-3-hydroxynaphthalen-2-yl)-1λ^6,2,5-thiadiazolidine-1,1,3-trione] were, in that order, above 9.00, 60 to 90% and below 25%.
As to `Cc1nn(C)cc1S(=O)(=O)N1CC=C(c2ccc3cc(O)c(N4CC(=O)NS4(=O)=O)c(F)c3c2)C1` [Compound 310, 5-{7-[1-(1,3-dimethyl-1H-pyrazole-4-sulfonyl)-2,5-dihydro-1H-pyrrol-3-yl]-1-fluoro-3-hydroxynaphthalen-2-yl}-1λ^6,2,5-thiadiazolidine-1,1,3-trione], in experiment [1], the pIC50 is above 9.00. Further, the inhibition at 33 µM in experiment [2] (setting [3]) is above 90%; in experiment [2] (setting [4]) it was below 25%.
As for `CC(C)(C)CCNc1ccc2cc(O)c(N3CC(=O)NS3(=O)=O)c(F)c2c1` [Compound 116, 5-{7-[(3,3-dimethylbutyl)amino]-1-fluoro-3-hydroxynaphthalen-2-yl}-1λ^6,2,5-thiadiazolidine-1,1,3-trione], the pIC50 in experiment [1] was 8.00 to 9.00. Moreover, the inhibition at 33 µM in experiment [2] (setting [3]) was above 90%; in experiment [2] (setting [4]) it was below 25%.
The like results for `N#CC1(CNc2ccc3cc(O)c(N4CC(=O)NS4(=O)=O)c(F)c3c2)CC1` [Compound 181, 1-({[8-fluoro-6-hydroxy-7-(1,1,4-trioxo-1λ^6,2,5-thiadiazolidin-2-yl)naphthalen-2-yl]amino}methyl)cyclopropane-1-carbonitrile] were, in that order, 8.00 to 9.00, 60 to 90% and below 25%.
The like results for `CC(C)Oc1ccc2cc(O)c(N3CC(=O)NS3(=O)=O)c(F)c2c1` [Compound 279, 5-{1-fluoro-3-hydroxy-7-[(propan-2-yl)oxy]naphthalen-2-yl}-1λ^6,2,5-thiadiazolidine-1,1,3-trione] were, in that order, 8.00 to 9.00, 60 to 90% and below 25%.
Regarding `N#CCC1(COc2ccc3cc(O)c(N4CC(=O)NS4(=O)=O)c(F)c3c2)CC1` [Compound 130, [1-({[8-fluoro-6-hydroxy-7-(1,1,4-trioxo-1λ^6,2,5-thiadiazolidin-2-yl)naphthalen-2-yl]oxy}methyl)cyclopropyl]acetonitrile], the pIC50 in experiment [1] was above 9.00. In addition, the results for the inhibition at 33 µM in experiment [2] (setting [3]) and in experiment [2] (setting [4]) were 60 to 90% and below 25%, respectively.
Take `COc1ccc2c(Cl)c(O)c(N3CC(=O)NS3(=O)=O)c(F)c2c1` [Compound 238, 5-(4-chloro-1-fluoro-3-hydroxy-7-methoxynaphthalen-2-yl)-1λ^6,2,5-thiadiazolidine-1,1,3-trione]: in experiment [1], the negative logarithm of the IC50 (pIC50) was 7.00 to 8.00. Further, the inhibition at 33 µM in experiment [2] (setting [3]) and in experiment [2] (setting [4]) was below 25% throughout.
In the case of `COc1ccc2cc(O)c(N3CC(=O)NS3(=O)=O)c(F)c2c1Cl` [Compound 234, 5-(8-chloro-1-fluoro-3-hydroxy-7-methoxynaphthalen-2-yl)-1λ^6,2,5-thiadiazolidine-1,1,3-trione], in experiment [1], the pIC50 was 7.00 to 8.00.
Take `O=C1CN(c2c(O)cc3ccc(C4=CCNC4)cc3c2F)S(=O)(=O)N1` [Compound 265, 5-[7-(2,5-dihydro-1H-pyrrol-3-yl)-1-fluoro-3-hydroxynaphthalen-2-yl]-1λ^6,2,5-thiadiazolidine-1,1,3-trione]: in experiment [1], the negative logarithm of the IC50 (pIC50) was 8.00 to 9.00.
Consider `O=C1CN(c2c(O)cc3ccc(CO)cc3c2F)S(=O)(=O)N1` [Compound 185, 5-[1-fluoro-3-hydroxy-7-(hydroxymethyl)naphthalen-2-yl]-1λ^6,2,5-thiadiazolidine-1,1,3-trione], for which the pIC50 in experiment [1] is 8.00 to 9.00.
The same measure, in the same setting: as for `CS(=O)(=O)N1CCC(Oc2ccc3cc(O)c(N4CC(=O)NS4(=O)=O)c(F)c3c2)CC1` [Compound 284, 5-(1-fluoro-3-hydroxy-7-{[1-(methanesulfonyl)piperidin-4-yl]oxy}naphthalen-2-yl)-1λ^6,2,5-thiadiazolidine-1,1,3-trione], the figure is 8.00 to 9.00.
Same read-out and setting: as for `O=C1CN(c2c(O)cc3ccc(C4CC4)cc3c2F)S(=O)(=O)N1` [Compound 236, 5-(7-cyclopropyl-1-fluoro-3-hydroxynaphthalen-2-yl)-1λ^6,2,5-thiadiazolidine-1,1,3-trione], the figure is 8.00 to 9.00.
The same measure, in the same setting: as for `N#CCc1ccc2cc(O)c(N3CC(=O)NS3(=O)=O)c(F)c2c1` [Compound 228, [8-fluoro-6-hydroxy-7-(1,1,4-trioxo-1λ^6,2,5-thiadiazolidin-2-yl)naphthalen-2-yl]acetonitrile], the figure is 8.00 to 9.00; as for `CCCCS(=O)(=O)N1CC=C(c2ccc3cc(O)c(N4CC(=O)NS4(=O)=O)c(F)c3c2)C1` [Compound 291, 5-{7-[1-(butane-1-sulfonyl)-2,5-dihydro-1H-pyrrol-3-yl]-1-fluoro-3-hydroxynaphthalen-2-yl}-1λ^6,2,5-thiadiazolidine-1,1,3-trione], above 9.00; as for `CC(C)CCCc1ccc2cc(O)c(N3CC(=O)NS3(=O)=O)c(F)c2c1` [Compound 219, 5-[1-fluoro-3-hydroxy-7-(4-methylpentyl)naphthalen-2-yl]-1λ^6,2,5-thiadiazolidine-1,1,3-trione], 8.00 to 9.00.
In the case of `CCNC(=O)NCCOc1ccc2cc(O)c(N3CC(=O)NS3(=O)=O)c(F)c2c1` [Compound 270, N-ethyl-N′-(2-{[8-fluoro-6-hydroxy-7-(1,1,4-trioxo-1λ^6,2,5-thiadiazolidin-2-yl)naphthalen-2-yl]oxy}ethyl)urea], the pIC50 in experiment [1] is 8.00 to 9.00.
